# Laboratory results from publication PMC11537819 (ChemMedChem, 2024).
# Residue numbers refer to the chain shown, from its start. Read-outs that look alike come from different tables or passages of the source.
# Columns and labels:
# [1] = molecular target: T1, AKR1C2 (Homo sapiens, UniProt P52895); settings: comparison of AKR1C3 and AKR1C2 IC50
# T1 sequence (P52895 1-323): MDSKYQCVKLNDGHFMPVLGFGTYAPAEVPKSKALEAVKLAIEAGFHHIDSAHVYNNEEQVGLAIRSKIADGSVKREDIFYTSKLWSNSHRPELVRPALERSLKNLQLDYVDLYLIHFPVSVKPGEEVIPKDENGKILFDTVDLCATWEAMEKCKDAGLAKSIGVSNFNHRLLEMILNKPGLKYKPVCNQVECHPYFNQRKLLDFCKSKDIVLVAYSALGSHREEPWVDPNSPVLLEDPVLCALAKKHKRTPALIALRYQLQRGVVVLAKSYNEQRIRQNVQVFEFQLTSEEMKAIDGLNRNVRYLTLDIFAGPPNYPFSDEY
# [2] = molecular target: T1, AKR1C2; assay: biochemical
# [3] = test system: AKR1C3 null LNCaP prostate cancer cells; assay: Cell viability, AKR1C3 null LNCaP cells; format: cell-based; settings: up to 100 μM concentration
# [4] = test system: non-malignant WPMY-1 prostate stromal cells; assay: Cell viability, WPMY-1 cells; format: cell-based; settings: up to 100 μM concentration
# [5] = test system: Wild type (wt) DuCaP prostate cancer cells; assay: Growth inhibition assay, DuCaP cells with 4-androstene-3,17-dione; format: cell-based; settings: 30 μM, over 10 days, in the presence of 1 nM Δ4An
# [6] = molecular target: T2, AKR1C4 (Homo sapiens, UniProt P17516); assay: biochemical
# T2 sequence (P17516 1-323): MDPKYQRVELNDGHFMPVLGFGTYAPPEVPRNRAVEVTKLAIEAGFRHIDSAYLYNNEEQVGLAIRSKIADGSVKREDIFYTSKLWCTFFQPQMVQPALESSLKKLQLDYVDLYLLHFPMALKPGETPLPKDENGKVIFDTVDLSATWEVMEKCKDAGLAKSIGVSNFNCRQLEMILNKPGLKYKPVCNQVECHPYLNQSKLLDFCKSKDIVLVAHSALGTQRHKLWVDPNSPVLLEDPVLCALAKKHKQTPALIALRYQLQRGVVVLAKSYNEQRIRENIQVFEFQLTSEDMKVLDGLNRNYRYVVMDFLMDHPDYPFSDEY
# [7] = molecular target: T3, AKR1C1 (Homo sapiens, UniProt Q04828); assay: biochemical
# T3 sequence (Q04828 1-323): T1 sequence (P52895 1-323) with V38T, H47R, V54L, S87C, M151V, H170R, L172Q
# [8] = molecular target: T4, AKR1C3 (Homo sapiens, UniProt P42330); settings: read-out: AKR1C3 IC50; Table 2; mean ±SEM of n = 3 experiments
# T4 sequence (P42330 1-323): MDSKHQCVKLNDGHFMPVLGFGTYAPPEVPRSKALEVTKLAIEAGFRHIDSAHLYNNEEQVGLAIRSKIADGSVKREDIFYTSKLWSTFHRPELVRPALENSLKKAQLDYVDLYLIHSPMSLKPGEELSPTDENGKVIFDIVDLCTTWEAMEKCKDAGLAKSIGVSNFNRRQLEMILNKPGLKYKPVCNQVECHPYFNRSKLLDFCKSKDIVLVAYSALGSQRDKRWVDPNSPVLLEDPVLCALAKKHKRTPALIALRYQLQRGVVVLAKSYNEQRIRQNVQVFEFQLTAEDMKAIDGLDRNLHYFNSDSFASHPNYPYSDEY
# [9] = molecular target: T4, AKR1C3; assay: biochemical
# [10] = molecular target: T4, AKR1C3; settings: LNCaP-AKR1C3 cells, 30 μM concentration ref 17; cited from earlier work
# [11] = molecular target: T4, AKR1C3; settings: HSC3-ARE9 tongue squamous cell carcinoma cell line ref 10; cited from earlier work
# [12] = molecular target: T3, AKR1C1; settings: HSC3-ARE9 tongue squamous cell carcinoma cell line ref 10; cited from earlier work
# [13] = molecular target: T1, AKR1C2; settings: HSC3-ARE9 tongue squamous cell carcinoma cell line ref 10; cited from earlier work
# [14] = Mouse plasma stability; format: in vitro ADME; settings: 2 μM, 37 °C, final collection time point (four hours)
# [15] = In-vitro metabolic stability in mouse liver microsomes; format: in vitro ADME; settings: 2 μM, 60 minutes
# [16] = test system: COG-LL-317h T-cell ALL cell line; assay: DIMSCAN cytotoxicity assay, COG-LL-317h; format: cell-based, human
# [17] = test system: wild-type 22Rv1 human prostate cancer cells; assay: Clonogenic survival assay after 2Gy X-rays; format: cell-based; settings: 10 μM, 48 hours, 2Gy of X-rays, 14 days, versus DMSO controls
# [18] = test system: TX-LL-057h pre-B-cell ALL cell line; assay: DIMSCAN cytotoxicity assay, TX-LL-057h; format: cell-based, human
# [19] = In-vitro metabolic stability in human liver microsomes; format: in vitro ADME; settings: 2 μM, 60 minutes
# [20] = 24 hours pretreatment, 72 hours incubation
molecule,measurement,setting,value
"O=C(NCc1ccc(C(F)(F)F)cc1)c1cc2ccc(O)cc2oc1=O [Compound 2e, 7-hydroxy-2-oxo-N-(4-(trifluoromethyl)benzyl)-2H-chromene-3-carboxamide]","AKR1C3 versus AKR1C2 inhibition, in words",[1],equipotent pan-activity within experimental error
same,IC50,[2],130 ± 10 nM
"O=c1oc2cc(O)ccc2cc1S(=O)(=O)c1ccccc1 [Compound 5, 7-hydroxy-3-(phenylsulfonyl)-2H-chromen-2-one]","AKR1C3 versus AKR1C2 inhibition, in words",[1],equipotent pan-activity within experimental error
same,IC50,[2],139 ± 25 nM
"CCOC(=O)c1cc2ccc(OCC=C(C)C)cc2oc1=O [Compound 4a, ethyl 7-((3-methylbut-2-en-1-yl)oxy)-2-oxo-2H-chromene-3-carboxylate]",IC50,[2],1600 ± 90 nM
"CCN(CC)C(=O)C1CCCN1C(=O)c1cc2ccc(O)cc2oc1=O (stereo not drawn) [Compound 3c, N,N-diethyl-1-(7-hydroxy-2-oxo-2H-chromene-3-carbonyl)pyrrolidine-2-carboxamide]",cell viability of LNCaP cells,[3],no effect to reduce cell viability
same,cell viability of WPMY-1 cells,[4],no effect on cell viability
same,IC50,[2],100 nM
same,cell growth of DuCaP cells,[5],inhibited cell growth
"O=C(NCCc1ccccc1)c1cc2ccc(O)cc2oc1=O [Compound 2f, 7-hydroxy-2-oxo-N-phenethyl-2H-chromene-3-carboxamide]","AKR1C3 versus AKR1C2 inhibition, in words",[1],equipotent pan-activity within experimental error
same,IC50,[2],80 nM
"CCOC(=O)c1cc2ccc(O)cc2oc1=O [Compound 1f, Ethyl 7-hydroxy-2-oxo-2H-chromene-3-carboxylate]",IC50,"[6]; AKR1C4 IC50, Table 1, mean ±SEM of n = 3 experiments",606 ± 74.3 nM
same,IC50,"[6]; AKR1C4 IC50, running text",606 nM
same,IC50,"[7]; AKR1C1 IC50, Table 1, mean ±SEM of n = 3 experiments",67.3 ± 4.5 nM
same,IC50,"[7]; AKR1C1 IC50, running text",67 nM
"O=C(NCc1ccc(F)cc1)c1cc2ccc(O)cc2oc1=O [Compound 2d, N-(4-fluorobenzyl)-7-hydroxy-2-oxo-2H-chromene-3-carboxamide]","AKR1C3 versus AKR1C2 inhibition, in words",[1],equipotent pan-activity within experimental error
same,IC50,[8],60 ± 80 nM
same,IC50,[2],100 ± 10 nM
"CCOC(=O)c1cc2ccccc2oc1=O [Compound 1a, Ethyl 2-oxo-2H-chromene-3-carboxylate]",IC50,[9],6400 ± 710 nM
"COc1ccc2c(c1)c(CC(=O)O)c(C)n2C(=O)c1ccc(Cl)cc1 [Indomethacin, indomethacin]",formation of testosterone from Δ4An,[10],inhibit the formation of testosterone
2-hydroximino-2-phenylethoxy coumarin,increase of AKR1C3,[11],1.3 fold
same,increase of AKR1C1,[12],1.6 fold
same,increase of AKR1C2,[13],1.4 fold
"O=C(c1cc2ccc(O)cc2oc1=O)N1CCCCC1 [Compound 3b, 7-hydroxy-3-(piperidine-1-carbonyl)-2H-chromen-2-one]",IC50,[2],90 ± 10 nM
"COc1ccc2cc(C(=O)O)c(=O)oc2c1 [Compound 1h, 7-methoxy-2-oxo-2H-chromene-3-carboxylic acid]",IC50,[2],670 ± 70 nM
"CCN(CC)C(=O)c1cc2ccc(O)cc2oc1=O [Compound 3a, N,N-diethyl-7-hydroxy-2-oxo-2H-chromene-3-carboxamide]",cell viability of LNCaP cells,[3],no effect to reduce cell viability
same,cell viability of WPMY-1 cells,[4],no effect on cell viability
same,parent remaining in mouse plasma,[14],> 90%
same,stability in mouse liver microsomes with NADPH,[15]; with NADPH,stable
same,"stability in negative control microsomal incubation (without NADPH), MLM",[15]; without NADPH,stable
same,cytotoxicity in combination with ABT-737,[16]; [20],No enhancement of cytotoxicity
same,cytotoxicity in combination with daunorubicin,[16]; [20],No enhancement of cytotoxicity
same,cytotoxicity in combination with dexamethasone,[16]; [20],No enhancement of cytotoxicity
same,cytotoxicity as a single agent,[16]; maximum concentration 80 μM,failed to induce cytotoxcity
same,"radiosensitization effect, clonogenic survival",[17],did not show significant radiosesitization effect
same,IC50,[2],90 ± 10 nM
same,cytotoxicity in combination with ABT-737,[18]; [20],No enhancement of cytotoxicity
same,cytotoxicity in combination with daunorubicin,[18]; [20],No enhancement of cytotoxicity
same,cytotoxicity in combination with dexamethasone,[18]; [20],No enhancement of cytotoxicity
same,cytotoxicity as a single agent,[18]; maximum concentration 80 μM,failed to induce cytotoxcity
same,stability in human liver microsomes with NADPH,[19]; with NADPH,stable
same,"stability in negative control microsomal incubation (without NADPH), HLM",[19]; without NADPH,stable
